Test results published in patent publication US8900591B2, “Vaccines comprising mutant GPCRs with increased conformational stability relative to parent receptors” (Heptares Therapeutics Limited, priority 2010, dated 2014).

What was measured:
[1] = system: 5-HT2A, 5-HT2B and 5-HT2C serotonin receptors; details: cited from earlier work
[2] = system: endogenous β1AR in untransfected HEK293s; assay: CRE-luc reporter assay on untransfected HEK293 cells; assay type: cell-based, human; details: 1 μM forskolin, non-transfected cells
Excerpt: One read-out that can be employed to assess the functional activity of the resulting sera is the impact on cAMP signalling. The CRE-luc reporter assay was employed where the CRE response from activation of AC-cAMP-PKA pathway is the read-out.
The first interim bleeds were initially evaluated only on transfected cells to assess if any functional response could be observed at this stage of immunisation. […].

SMILES | potency for 5-HT2C receptors relative to 5-HT2A [1] | selectivity for 5-HT2A over 5-HT2B [1] | CRE-luc response to forskolin stimulation [2]
C[C@@H](N)Cc1c2ccoc2c(Br)c2ccoc12 [Bromo-DragonFLY] | twice as potent | less than 5 × | 
C=C[C@@]1(C)CC(=O)[C@]2(O)[C@@]3(C)[C@@H](O)CCC(C)(C)[C@@H]3[C@H](O)[C@H](OC(C)=O)[C@@]2(C)O1 [forskolin] |  |  | ~20,000 RLU
